For twelve molecules, Kd results are on record in ChEMBL document CHEMBL3991601, “The target landscape of clinical kinase drugs” (Science, 2017).

For assay [1], the target named is T1, Serine/threonine-protein kinase D2 (Homo sapiens, UniProt Q9BZL6).
T1 sequence (Q9BZL6 whole entry): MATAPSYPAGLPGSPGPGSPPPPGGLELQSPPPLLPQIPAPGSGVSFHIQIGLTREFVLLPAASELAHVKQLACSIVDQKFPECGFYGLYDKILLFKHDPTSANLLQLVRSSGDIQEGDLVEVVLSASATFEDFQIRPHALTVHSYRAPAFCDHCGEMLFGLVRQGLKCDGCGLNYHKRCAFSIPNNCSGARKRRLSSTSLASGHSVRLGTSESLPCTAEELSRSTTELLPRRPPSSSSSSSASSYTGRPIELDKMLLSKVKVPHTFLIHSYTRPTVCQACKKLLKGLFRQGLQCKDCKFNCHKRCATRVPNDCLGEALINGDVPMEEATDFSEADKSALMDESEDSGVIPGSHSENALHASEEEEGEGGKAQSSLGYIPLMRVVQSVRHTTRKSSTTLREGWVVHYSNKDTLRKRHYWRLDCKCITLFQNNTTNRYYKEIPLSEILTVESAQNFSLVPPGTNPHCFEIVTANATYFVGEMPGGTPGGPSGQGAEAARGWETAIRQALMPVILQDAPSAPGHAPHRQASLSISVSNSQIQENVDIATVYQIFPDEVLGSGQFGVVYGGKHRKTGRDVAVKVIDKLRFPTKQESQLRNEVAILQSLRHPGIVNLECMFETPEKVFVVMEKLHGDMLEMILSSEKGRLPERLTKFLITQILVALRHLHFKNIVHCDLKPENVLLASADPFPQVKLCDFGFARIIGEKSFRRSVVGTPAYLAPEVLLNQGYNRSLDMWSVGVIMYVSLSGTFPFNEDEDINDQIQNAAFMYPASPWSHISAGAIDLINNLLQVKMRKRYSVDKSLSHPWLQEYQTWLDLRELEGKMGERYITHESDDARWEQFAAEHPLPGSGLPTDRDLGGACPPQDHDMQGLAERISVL

Assay [2] concerns the target ATP-dependent RNA helicase DDX3X (Homo sapiens, UniProt O00571).
Assay [3] deals with T2, Acyl-CoA dehydrogenase family member 11 (Homo sapiens, UniProt Q709F0).
T2 sequence (Q709F0 whole entry): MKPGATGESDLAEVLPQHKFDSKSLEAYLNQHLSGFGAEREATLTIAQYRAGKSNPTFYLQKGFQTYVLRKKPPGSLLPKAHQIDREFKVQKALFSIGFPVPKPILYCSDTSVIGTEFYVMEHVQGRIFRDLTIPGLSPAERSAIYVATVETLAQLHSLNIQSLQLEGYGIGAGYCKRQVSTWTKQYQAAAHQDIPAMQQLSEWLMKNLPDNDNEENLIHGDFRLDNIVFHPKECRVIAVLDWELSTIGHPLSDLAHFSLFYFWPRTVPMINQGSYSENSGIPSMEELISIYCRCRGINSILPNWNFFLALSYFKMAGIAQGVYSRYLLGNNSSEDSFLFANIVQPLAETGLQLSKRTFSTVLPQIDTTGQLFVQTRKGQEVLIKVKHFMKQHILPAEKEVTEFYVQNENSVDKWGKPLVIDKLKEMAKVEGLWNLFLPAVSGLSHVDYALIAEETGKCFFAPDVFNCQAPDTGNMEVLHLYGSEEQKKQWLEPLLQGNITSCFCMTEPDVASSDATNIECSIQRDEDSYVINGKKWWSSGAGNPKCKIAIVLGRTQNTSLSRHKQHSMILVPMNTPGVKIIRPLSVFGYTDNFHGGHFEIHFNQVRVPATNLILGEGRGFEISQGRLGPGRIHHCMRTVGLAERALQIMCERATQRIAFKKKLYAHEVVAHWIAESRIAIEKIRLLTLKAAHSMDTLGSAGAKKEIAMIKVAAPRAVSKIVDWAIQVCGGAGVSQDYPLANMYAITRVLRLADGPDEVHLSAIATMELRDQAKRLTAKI

Assay [4] concerns the target Membrane-associated progesterone receptor component 1 (Homo sapiens, UniProt O00264).
Assay [5] concerns the target GTP-binding nuclear protein Ran (Homo sapiens, UniProt P62826).
Assay [6] deals with T3, Mitogen-activated protein kinase kinase kinase 3 (Homo sapiens, UniProt Q99759).
T3 sequence (Q99759 whole entry): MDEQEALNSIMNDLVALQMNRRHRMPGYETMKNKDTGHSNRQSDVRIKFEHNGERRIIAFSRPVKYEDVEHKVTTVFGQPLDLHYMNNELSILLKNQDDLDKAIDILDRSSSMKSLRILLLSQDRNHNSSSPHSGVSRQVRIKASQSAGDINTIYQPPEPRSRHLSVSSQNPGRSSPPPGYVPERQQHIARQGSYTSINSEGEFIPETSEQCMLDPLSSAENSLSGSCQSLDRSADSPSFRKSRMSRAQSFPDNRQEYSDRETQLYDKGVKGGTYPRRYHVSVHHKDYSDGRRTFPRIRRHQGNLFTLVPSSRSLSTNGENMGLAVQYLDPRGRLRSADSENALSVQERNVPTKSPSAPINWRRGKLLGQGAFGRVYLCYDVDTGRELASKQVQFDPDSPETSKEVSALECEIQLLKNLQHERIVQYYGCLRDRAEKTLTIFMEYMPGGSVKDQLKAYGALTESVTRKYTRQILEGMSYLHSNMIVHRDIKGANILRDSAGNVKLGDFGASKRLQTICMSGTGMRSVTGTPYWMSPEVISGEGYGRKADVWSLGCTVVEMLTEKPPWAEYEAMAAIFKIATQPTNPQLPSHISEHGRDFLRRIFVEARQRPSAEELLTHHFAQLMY

The Kd is the free concentration of one partner at which half of the binding sites on the other are occupied at equilibrium, for simple one-to-one binding.

Calls of active or inactive are those of the source.
Note: in the data inactive means no Kd found up to 30 µM.

Chain of ATP-dependent RNA helicase DDX3X (O00571 whole entry): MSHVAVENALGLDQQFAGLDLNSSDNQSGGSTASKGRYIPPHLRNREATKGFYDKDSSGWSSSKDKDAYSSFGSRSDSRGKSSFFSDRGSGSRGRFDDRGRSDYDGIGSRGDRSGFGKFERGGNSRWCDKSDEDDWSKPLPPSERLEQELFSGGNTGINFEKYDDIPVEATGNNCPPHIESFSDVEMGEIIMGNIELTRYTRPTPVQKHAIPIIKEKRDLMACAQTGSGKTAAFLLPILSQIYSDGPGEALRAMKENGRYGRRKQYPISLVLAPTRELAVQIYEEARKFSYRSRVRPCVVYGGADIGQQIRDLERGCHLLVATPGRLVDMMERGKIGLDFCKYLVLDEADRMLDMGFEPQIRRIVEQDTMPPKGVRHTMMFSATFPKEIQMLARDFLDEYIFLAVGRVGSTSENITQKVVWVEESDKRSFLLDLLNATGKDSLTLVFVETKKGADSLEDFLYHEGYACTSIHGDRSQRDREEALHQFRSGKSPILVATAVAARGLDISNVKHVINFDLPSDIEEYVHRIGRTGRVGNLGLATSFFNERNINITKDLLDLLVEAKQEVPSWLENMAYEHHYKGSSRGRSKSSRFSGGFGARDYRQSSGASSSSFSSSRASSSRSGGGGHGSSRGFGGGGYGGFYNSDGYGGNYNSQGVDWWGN
Chain of Membrane-associated progesterone receptor component 1 (O00264 whole entry): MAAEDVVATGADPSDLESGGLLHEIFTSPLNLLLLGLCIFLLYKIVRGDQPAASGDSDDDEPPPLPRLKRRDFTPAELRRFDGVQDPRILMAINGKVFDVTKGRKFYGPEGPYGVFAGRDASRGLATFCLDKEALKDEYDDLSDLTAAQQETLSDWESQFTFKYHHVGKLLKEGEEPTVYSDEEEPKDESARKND

For `CCOc1cc2ncc(C#N)c(Nc3ccc(F)c(Cl)c3)c2cc1NC(=O)/C=C/CN(C)C` [PELITINIB], the Kd in assay [1] was > 30 µM (inactive); in assay [2], > 30 µM (inactive); in assay [3], > 30 µM (inactive); in assay [4] it was > 30 µM (inactive); in assay [5], > 30 µM (inactive); in assay [6] it was 2.09 µM (active).
As for `Cc1cnc(NC(=O)Nc2cc(Br)c(C)cc2OC[C@@H]2CNCCO2)cn1` [RABUSERTIB], the Kd in assay [1], in assay [2], in assay [3], in assay [4], in assay [5] and in assay [6] was > 30 µM (inactive) in each case.
For `CO[C@H]1C[C@@H]2CC[C@@H](C)[C@@](O)(O2)C(=O)C(=O)N2CCCC[C@H]2C(=O)O[C@H]([C@H](C)C[C@@H]2CC[C@@H](OP(C)(C)=O)[C@H](OC)C2)CC(=O)[C@H](C)/C=C(\C)[C@@H](O)[C@@H](OC)C(=O)[C@H](C)C[C@H](C)/C=C/C=C/C=C/1C` [RIDAFOROLIMUS], the Kd in assay [1], in assay [2], in assay [3], in assay [4], in assay [5] and in assay [6] was > 30 µM (inactive) throughout.
On to `O=c1[nH]ccc2cc(OC3CCNCC3)ccc12` [SAR-407899 FREE BASE], for which the Kd in assay [1], in assay [2], in assay [3], in assay [4], in assay [5] and in assay [6] was > 30 µM (inactive) each time.
For the molecule `Cn1cc(-c2cnn3c(N)c(Br)c([C@@H]4CCCNC4)nc23)cn1` [SCH-900776], the Kd in assay [1] is 6.41 µM (active); in assay [2] it was > 30 µM (inactive); in assay [3] it was > 30 µM (inactive); in assay [4] it was > 30 µM (inactive); in assay [5] it was > 30 µM (inactive); in assay [6], > 30 µM (inactive).
As to `CCS(=O)(=O)c1cccc(-c2cc(C(=O)NC3CCN(C)CC3)c(C)c3[nH]c4ncc(C)cc4c23)c1` [TAK-901], the Kd in assay [1], in assay [2], in assay [3], in assay [4], in assay [5] and in assay [6] was > 30 µM (inactive) in each case.
For `CO[C@H]1C[C@@H]2CC[C@@H](C)[C@@](O)(O2)C(=O)C(=O)N2CCCC[C@H]2C(=O)O[C@H]([C@H](C)C[C@@H]2CC[C@@H](OC(=O)C(C)(CO)CO)[C@H](OC)C2)CC(=O)[C@H](C)/C=C(\C)[C@@H](O)[C@@H](OC)C(=O)[C@H](C)C[C@H](C)/C=C/C=C/C=C/1C` [TEMSIROLIMUS], the Kd in assay [1], in assay [2], in assay [3], in assay [4], in assay [5] and in assay [6] was > 30 µM (inactive) in each case.
With `COc1cc2c(Nc3ccc(Cl)c(Cl)c3F)ncnc2cc1OC[C@@H]1C[C@@H]2CN(C)C[C@@H]2C1` [TESEVATINIB], the Kd in assay [1], in assay [2], in assay [3], in assay [4], in assay [5] and in assay [6] was > 30 µM (inactive) throughout.
As to `O=C(Cc1ccc(-c2ccc(OCCN3CCOCC3)cc2)cn1)NCc1ccccc1` [TIRBANIBULIN], the Kd in assay [1], in assay [2], in assay [3], in assay [4], in assay [5] and in assay [6] was > 30 µM (inactive) throughout.
Consider `O=C1NC(=O)[C@@H](c2cn3c4c(cccc24)CCC3)[C@@H]1c1c[nH]c2ccccc12` [TIVANTINIB], for which the Kd in assay [1], in assay [2], in assay [3], in assay [4], in assay [5] and in assay [6] was > 30 µM (inactive) each time.
For the molecule `Cc1cc(Nc2ncnc3ccc(NC4=NC(C)(C)CO4)cc23)ccc1Oc1ccn2ncnc2c1` [TUCATINIB], the Kd in assay [1], in assay [2], in assay [3], in assay [4], in assay [5] and in assay [6] was > 30 µM (inactive) in each case.
In the case of `CN1C/C=C/CCOc2cccc(c2)-c2ccnc(n2)Nc2cccc(c2)C1` [ZOTIRACICLIB], the dissociation constant Kd in assay [1] was 0.474 µM (active); in assay [2] it was > 30 µM (inactive); in assay [3], > 30 µM (inactive); in assay [4], > 30 µM (inactive); in assay [5], > 30 µM (inactive); in assay [6], > 30 µM (inactive).
